Data: patent publication US20240025919A1, “AZA-TETRACYCLIC OXAZEPINE COMPOUNDS AND USES THEREOF” (Genentech, Inc., priority 2022, published 2024)
Read-outs that look alike come from different tables or passages of the source. Values belong to the molecule of their own block, whether it stands above or below them.

Columns and labels:
KRAS G12D = KRAS G12D (Homo sapiens (Human), UniProt P01116, G12D); assay: KRAS G12D LoEnz Biochemical Assay, BODIPY-GDP Exchange TR-FRET (SOS1-mediated nucleotide exchange); conditions: read-out: KRas (G12D) GDP HTRF IC50
Sequence of KRAS G12D (P01116-2 other isoform, or with tags, fused parts or gaps G12D): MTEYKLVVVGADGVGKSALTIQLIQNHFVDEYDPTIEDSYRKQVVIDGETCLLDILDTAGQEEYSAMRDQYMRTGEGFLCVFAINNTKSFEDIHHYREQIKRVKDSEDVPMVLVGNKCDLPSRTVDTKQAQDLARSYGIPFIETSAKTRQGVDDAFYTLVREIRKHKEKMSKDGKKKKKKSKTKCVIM
Method: Example 500: KRAS G12D LoEnz Biochemical Assay, BODIPY-GDP Exchange TR-FRET. Biochemical compound potencies are assessed by evaluating inhibition of SOS1I-mediated nucleotide exchange in KRAS G121D. In this assay, the SOS1-promoted exchange of fluorescently-labeled GDP (BOPIDY-GDP) is monitored by time-resolved fluorescence resonance energy transfer (TR-FRET). Compounds solubilized in DMS0 are dispensed as concentration series into 384-well white assay plates. A preformed complex of biotin-tagged recombinant human KRAS (0.06 nM mutant G1 2D) and 0.06 nM terbium-labeled streptavidin (CisBIO) prepared in 10 uL/well assay buffer (20 mM HEPES, pH 7.5, 50 mM NaCl, 10 mMMMgCl2, 0.0100 Tween-20 and 1 mM dithiothreitol) is added and allowed to incubate for 10-minutes at room temperature. The reaction is initiated with the addition of 5 uL 300 nM recombinant human SOS1 and 300 nM BODIPY-GDP in assay buffer. After a 120-minute incubation, the fluorescence is measured with excitation at 337 nm and emission at 490 and 520 nm. The TR-FRET ratio is determined as the fluorescence at 520 nm divided by the fluorescence at 490 nm multiplied by 10,000. The results are normalized to percent inhibition based on control samples: DMSO (0% inhibition) and control compound at a concentration that inhibits completely (100% inhibition). The normalized TR-FRET results are plotted against compound concentration, and the data are fit to a 4-parameter Hill equation to determine the IC50 values.

KRAS WT = KRAS WT (Homo sapiens (Human), UniProt P01116); assay: KRAS WT Biochemical Assay, BODIPY-GDP Exchange TR-FRET (Example 501; 3 nM KRAS WT, 3 nM SOS1, 60-minute incubation)
Sequence of KRAS WT (P01116-2 other isoform, or with tags, fused parts or gaps): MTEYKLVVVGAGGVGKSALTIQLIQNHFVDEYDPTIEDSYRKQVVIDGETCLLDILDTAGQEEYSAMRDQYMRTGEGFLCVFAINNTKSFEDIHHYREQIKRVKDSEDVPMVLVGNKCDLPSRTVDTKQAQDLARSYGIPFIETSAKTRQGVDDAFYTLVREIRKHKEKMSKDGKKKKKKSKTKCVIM
Method: Example 501: KRAS WT Biochemical Assay, BODIPY-GDP Exchange TR-FRET. Biochemical compound potencies are assessed by evaluating inhibition of SOS1-mediated nucleotide exchange in KRAS WT. In this assay, the SOS1-promoted exchange of fluorescently-labeled GDP (BOPIDY-GDP) is monitored by time-resolved fluorescence resonance energy transfer (TR-FRET). Compounds solubilized in DMSO are dispensed as concentration series into 384-well white assay plates, and 5 uL assay buffer (20 mM HEPES, pH 7.5, 50 mM NaCl, 10 mM MgCl2, 0.01% Tween-20 and 1 mM dithiothreitol) is added just prior to the start of the assay. A preformed complex of 3 nM biotin-tagged recombinant human KRAS WT and 0.3 nM terbium-labeled streptavidin (CisBIO) prepared in 5 uL/well assay buffer is added and allowed to incubate for 10-minutes at room temperature. The reaction is initiated with the addition of 5 uL 3 nM recombinant human SOS1 and 300 nM BODIPY-GDP in assay buffer. After a 60-minute incubation, the fluorescence is measured with excitation at 337 nm and emission at 490 and 520 nm. The TR-FRET ratio is determined as the fluorescence at 520 nm divided by the fluorescence at 490 nm multiplied by 10,000. The results are normalized to percent inhibition based on control samples: DMSO (0% inhibition) and control compound at a concentration that inhibits completely (100% inhibition). The normalized TR-FRET results are plotted against compound concentration, and the data are fit to a 4-parameter Hill equation to determine the IC50 values.

[1] = read-out: KRas(wt) GDP HTRF IC50

Compound: Cc1cc(N)c(F)c(-c2nc3c4c(ncnc4c2Cl)N2C[C@H]4CC[C@H](N4)[C@H]2[C@H](C)O3)c1C(F)(F)F (atropisomer, axis not shown) [Compound 95, 3-((5S,5aS,6S,9R)-1-chloro-5-methyl-5a,6,7,8,9,10-hexahydro-5H-4-oxa-3,10a,11,13,14-pentaaza-6,9-methanonaphtho[1,8-ab]heptalen-2-yl)-2-fluoro-5-methyl-4-(trifluoromethyl)aniline]
IC50 (KRAS G12D): 26.6 nM

Compound: Cc1cc(N)c(F)c(-c2nc3c4c(nc(OCC56CCN5CC(F)(F)C6)nc4c2F)N2C[C@H]4CC[C@H](N4)[C@H]2[C@H](C)O3)c1C(F)(F)F (mixture of isomers) [Compound 33, 3-((5S,5aS,6S,9R)-12-((3,3-Difluoro-1-azabicyclo[3.2.0]heptan-5-yl)methoxy)-1-fluoro-5-methyl-5a,6,7,8,9,10-hexahydro-5H-4-oxa-3,10a,11,13,14-pentaaza-6,9-methanonaphtho[1,8-ab]heptalen-2-yl)-2-fluoro-5-methyl-4-(trifluoromethyl)aniline]
IC50 (KRAS G12D): 0.23 nM | IC50 (KRAS WT; [1]): 7.53 nM

Compound: Cc1c(F)c(N)cc(-c2nc3c4c(nc(OCC56CCN5CC(F)(F)C6)nc4c2F)N2C[C@H]4CC[C@H](N4)[C@H]2[C@H](C(F)(F)F)O3)c1C(F)(F)F (mixture of isomers) [Compound 244, 5-((5R,5aS,6S,9R)-12-((3,3-Difluoro-1-azabicyclo[3.2.0]heptan-5-yl)methoxy)-1-fluoro-5-(trifluoromethyl)-5a,6,7,8,9,10-hexahydro-5H-4-oxa-3,10a,11,13,14-pentaaza-6,9-methanonaphtho[1,8-ab]heptalene-2-yl)-2-fluoro-3-methyl-4-(trifluoromethyl)aniline]
IC50 (KRAS G12D): 0.52 nM | IC50 (KRAS WT; read-out: KRas HTRF IC50): 11.9 nM

Compound: Cc1nc(N)cc(-c2nc3c4c(nc(OCC5(CN6CC7CC(F)(F)C7C6)CC5)nc4c2F)N2C[C@H]4CC[C@H](N4)[C@H]2[C@H](C)O3)c1C(F)(F)F (mixture of isomers) [Compound 264, 4-((5S,5aS,6S,9R)-12-((1-((6,6-difluoro-3-azabicyclo[3.2.0]heptan-3-yl)methyl)cyclopropyl)methoxy)-1-fluoro-5-methyl-5a,6,7,8,9,10-hexahydro-5H-4-oxa-3,10a,11,13,14-pentaaza-6,9-methanonaphtho[1,8-ab]heptalene-2-yl)-6-methyl-5-(trifluoromethyl)pyridin-2-amine]
IC50 (KRAS G12D): 0.33 nM | IC50 (KRAS WT; read-out: KRas HTRF IC50): 19.2 nM

Compound: Cc1c(F)c(N)cc(-c2nc3c4c(nc(OC[C@H]5CC[C@@H]6C(=O)N(C)CCN56)nc4c2F)N2C[C@H]4CC[C@H](N4)[C@H]2[C@H](C)O3)c1C(F)(F)F (relative stereo) [Compound 123, 6-((((5S,5aS,6S,9R)-2-(5-Amino-4-fluoro-3-methyl-2-(trifluoromethyl)phenyl)-1-fluoro-5-methyl-5a,6,7,8,9,10-hexahydro-5H-4-oxa-3,10a,11,13,14-pentaaza-6,9-methanonaphtho[1,8-ab]heptalen-12-yl)oxy)methyl)-2-methylhexahydropyrrolo[1,2-a]pyrazin-1(2H)-one]
IC50 (KRAS G12D): 0.7 nM

Compound: C[C@@H]1Oc2nc(-c3cc(N)cc(F)c3C(F)(F)F)c(F)c3nc(OC[C@H]4CC[C@@H]5COC(C)(C)CN45)nc(c23)N2C[C@H]3CC[C@H](N3)[C@@H]12 (relative stereo) [Compound 125, 3-((5S,5aS,6S,9R)-12-((3,3-dimethylhexahydro-1H-pyrrolo[2,1-c][1,4]oxazin-6-yl)methoxy)-1-fluoro-5-methyl-5a,6,7,8,9,10-hexahydro-5H-4-oxa-3,10a,11,13,14-pentaaza-6,9-methanonaphtho[1,8-ab]heptalen-2-yl)-5-fluoro-4-(trifluoromethyl)aniline]
IC50 (KRAS G12D): 0.23 nM

IC50 (KRAS WT; read-out: KRas HTRF IC50): 143 nM
Compound: Cc1c(F)c(N)cc(-c2nc3c4c(nc(OC[C@@]56CCCN5C[C@H](F)C6)nc4c2F)N2CCNC[C@H]2[C@H](C)O3)c1C(F)(F)F (single isomer, unassigned) [235 (isomer 1)]
IC50 (KRAS G12D): 65.8 nM

IC50 (KRAS WT; read-out: KRas HTRF IC50): 2.63 nM
Compound: Cc1c(F)c(N)cc(-c2nc3c4c(nc(OC[C@@]56CCCN5C[C@H](F)C6)nc4c2F)N2CCNC[C@H]2C(C)O3)c1C(F)(F)F (single isomer, unassigned) [235 (isomer 2)]
IC50 (KRAS G12D): 0.48 nM

Compound: Cc1c(F)c(N)cc(-c2nc3c4c(nc(OC[C@@]56CCCN5C[C@H](F)C6)nc4c2F)N2C[C@H]4CC[C@H](N4)[C@@H]2[C@H](C)O3)c1C(F)(F)F (single isomer, unassigned) [237 (isomer 1)]
IC50 (KRAS G12D): 1910 nM | IC50 (KRAS WT; read-out: KRas HTRF IC50): 1020 nM

Compound: Cc1nc(N)cc(-c2nc3c4c(nc(OC[C@@]56CCN5CC(F)(F)C6)nc4c2F)N2C[C@H]4CC[C@H](N4)[C@H]2[C@H](C(F)(F)F)O3)c1C(F)(F)F (single isomer, unassigned) [252 (isomer 1)]
IC50 (KRAS G12D): 1.17 nM | IC50 (KRAS WT; read-out: KRas HTRF IC50): 25 nM

Compound: C#Cc1cccc2cc(O)cc(-c3nc4c5c(nc(OC[C@]67CCN6CC(F)(F)C7)nc5c3F)N3C[C@H]5CC[C@H](N5)[C@H]3[C@H](C)O4)c12 (single isomer, unassigned) [Compound 19]
IC50 (KRAS G12D): 0.08 nM | IC50 (KRAS WT; [1]): 1.83 nM

Compound: C#Cc1cccc2cc(O)cc(-c3nc4c5c(nc(OC[C@@]67CCN6CC(F)(F)C7)nc5c3F)N3C[C@H]5CC[C@H](N5)[C@H]3[C@H](C)O4)c12 (single isomer, unassigned) [Compound 20]
IC50 (KRAS G12D): 0.12 nM | IC50 (KRAS WT; [1]): 6.55 nM

Compound: Cc1c(Cl)c(N)cc(-c2nc3c4c(nc(OC[C@@]56CCCN5C[C@H](F)C6)nc4c2F)N2C[C@H]4CC[C@H](N4)[C@H]2[C@H](C)O3)c1C(F)(F)F (single isomer, unassigned) [Compound 200]
IC50 (KRAS G12D): 0.1 nM

Compound: Cc1nc(N)cc(-c2nc3c4c(nc(OCC56CCCN5CC(F)C6)nc4c2F)N2CC4CCC(N4)[C@H]2[C@@H](C(F)(F)F)O3)c1C(F)(F)F (stereo in doubt) [Compound 243, 4-((6R,9S)-1-fluoro-12-(((2S,7aR)-2-fluorotetrahydro-1H-pyrrolizin-7a(5H)-yl)methoxy)-5-(trifluoromethyl)-5a,6,7,8,9,10-hexahydro-5H-4-oxa-3,10a,11,13,14-pentaaza-6,9-methanonaphtho[1,8-ab]heptalene-2-yl)-6-methyl-5-(trifluoromethyl)pyridin-2-amine]
IC50 (KRAS G12D): 581 nM | IC50 (KRAS WT; read-out: KRas HTRF IC50): 3960 nM

Compound: Cc1cc(N)c(Cl)c(-c2nc3c4c(nc(OC[C@@]56CCCN5C[C@H](F)C6)nc4c2F)N2C[C@H]4CC[C@H](N4)[C@H]2[C@H](C)O3)c1C(F)(F)F [Compound 199, 2-Chloro-3-((5S,5aS,6S,9R)-1-fluoro-12-(((2R,7aS)-2-fluorotetrahydro-1H-pyrrolizin-7a(5H)-yl)methoxy)-5-methyl-5a,6,7,8,9,10-hexahydro-5H-4-oxa-3,10a,11,13,14-pentaaza-6,9-methanonaphtho[1,8-ab]heptalen-2-yl)-5-methyl-4-(trifluoromethyl)aniline]
IC50 (KRAS G12D): 0.17 nM

Compound: Cc1c(F)c(N)cc(-c2nc3c4c(nc(OC[C@@]56CCCN5C[C@H](F)C6)nc4c2F)N2C[C@H]4CC[C@H](N4)[C@H]2[C@@H](C(F)(F)F)O3)c1C(F)(F)F [Compound 246, 2-Fluoro-5-((5S,5aS,6S,9R)-1-fluoro-12-(((2R,7aS)-2-fluorotetrahydro-1H-pyrrolizin-7a(5H)-yl)methoxy)-5-(trifluoromethyl)-5a,6,7,8,9,10-hexahydro-5H-oxa-3,10a,11,13,14-pentaaza-6,9-methanonaphtho[1,8-ab]heptalene-2-yl)-3-methyl-4-(trifluoromethyl)aniline]
IC50 (KRAS WT; read-out: KRas HTRF IC50): 1200 nM

Compound: Cc1nc(N)cc(-c2nc3c4c(nc(OCC5(CN6CC7COCC(C6)C7(F)F)CC5)nc4c2F)N2C[C@H]4CC[C@H](N4)[C@H]2[C@H](C)O3)c1C(F)(F)F [Compound 266, 4-((5S,5aS,6S,9R)-12-((1-((9,9-difluoro-3-oxa-7-azabicyclo[3.3.1]nonon-7-yl)methyl)cyclopropyl)methoxy)-1-fluoro-5-methyl-5a,6,7,8,9,10-hexahydro-5H-4-oxa-3,10a,11,13,14-pentaaza-6,9-methanonaphtho[1,8-ab]heptalene-2-yl)-6-methyl-5-(trifluoromethyl)pyridin-2-amine]
IC50 (KRAS WT; read-out: KRas HTRF IC50): 1100 nM
